Measured values from ChEMBL document CHEMBL4364308, “Design, synthesis, in-silico and biological evaluation of novel chalcone derivatives as multi-function agents for the treatment of Alzheimer's disease” (Eur J Med Chem, 2019).
pIC50: −log10 of the molar value. Active and inactive are the calls of the source. The calls are words filed in the database; no cut-off is given here.

Key:
Homo sapiens = species on record: Homo sapiens; test: Selectivity index, ratio of IC50 for recombinant human MAO-A expressed in baculovirus infected BTI insect cells to IC50 for recombinant human MAO-B expressed in baculovirus infected BTI insect cells
Cholinesterase = Cholinesterase (Equus caballus, UniProt P81908); test: Inhibition of equine serum BuChE using butyrylthiocholine iodide as substrate incubated for 15 mins by Ellman's method
Cholinesterase, sequence (P81908 whole entry): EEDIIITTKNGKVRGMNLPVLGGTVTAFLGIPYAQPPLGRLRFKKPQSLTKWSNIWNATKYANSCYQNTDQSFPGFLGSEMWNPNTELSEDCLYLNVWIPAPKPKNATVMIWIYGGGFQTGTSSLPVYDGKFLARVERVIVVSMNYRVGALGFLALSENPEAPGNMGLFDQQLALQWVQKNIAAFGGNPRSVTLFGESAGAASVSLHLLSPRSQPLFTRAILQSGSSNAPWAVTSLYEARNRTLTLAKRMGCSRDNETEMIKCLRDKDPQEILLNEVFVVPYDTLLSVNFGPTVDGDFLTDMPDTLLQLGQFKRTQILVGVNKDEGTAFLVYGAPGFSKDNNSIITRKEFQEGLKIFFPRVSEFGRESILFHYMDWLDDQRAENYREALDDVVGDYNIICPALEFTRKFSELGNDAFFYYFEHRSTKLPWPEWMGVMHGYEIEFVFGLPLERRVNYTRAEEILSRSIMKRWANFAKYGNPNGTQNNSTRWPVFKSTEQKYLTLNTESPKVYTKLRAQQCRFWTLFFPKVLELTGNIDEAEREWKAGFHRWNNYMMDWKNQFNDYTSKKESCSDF

[1] = Permeability of compound at 100 ug/ml measured after dilution with PBS/EtOH (70:30) at pH 7.4 after 18 hrs by PAMPA-BBB assay
[2] = Antioxidant activity assessed as AAPH radical scavenging activity preincubated for 15 mins followed by AAPH addition measured every min for 90 mins by ORAC-FL assay relative to trolox; format: functional
Acetylcholinesterase = Acetylcholinesterase (Electrophorus electricus, UniProt O42275); test: Inhibition of electric eel AChE using acetylthiocholine iodide as substrate incubated for 15 mins by Ellman's method; format: ADME
Acetylcholinesterase, sequence (O42275 whole entry): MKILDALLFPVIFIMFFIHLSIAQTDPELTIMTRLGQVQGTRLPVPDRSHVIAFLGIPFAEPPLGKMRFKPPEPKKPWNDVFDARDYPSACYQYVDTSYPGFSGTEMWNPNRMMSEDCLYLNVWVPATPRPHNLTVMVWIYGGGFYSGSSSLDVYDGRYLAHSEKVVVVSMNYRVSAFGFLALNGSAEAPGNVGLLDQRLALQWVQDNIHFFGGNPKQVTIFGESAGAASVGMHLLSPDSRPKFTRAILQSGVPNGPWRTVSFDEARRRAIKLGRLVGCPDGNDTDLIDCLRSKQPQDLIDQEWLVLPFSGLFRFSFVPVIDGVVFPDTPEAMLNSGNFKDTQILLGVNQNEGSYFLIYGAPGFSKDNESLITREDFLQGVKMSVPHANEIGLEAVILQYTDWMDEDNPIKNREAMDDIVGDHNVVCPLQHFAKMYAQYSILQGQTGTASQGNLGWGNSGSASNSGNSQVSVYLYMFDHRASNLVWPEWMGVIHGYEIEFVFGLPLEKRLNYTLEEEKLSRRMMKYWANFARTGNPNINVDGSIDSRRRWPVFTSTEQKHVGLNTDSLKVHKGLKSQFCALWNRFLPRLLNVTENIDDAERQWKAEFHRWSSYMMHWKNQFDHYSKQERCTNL

[3] = target: Amyloid-beta precursor protein (Homo sapiens) (UniProt P05067); test: Inhibition of self-induced aggregation of amyloid beta (1 to 42) (unknown origin) at 25 uM incubated for 24 hrs by thioflavin-T fluorescence assay relative to control
Amyloid-beta precursor protein (Homo sapiens), sequence (P05067 whole entry): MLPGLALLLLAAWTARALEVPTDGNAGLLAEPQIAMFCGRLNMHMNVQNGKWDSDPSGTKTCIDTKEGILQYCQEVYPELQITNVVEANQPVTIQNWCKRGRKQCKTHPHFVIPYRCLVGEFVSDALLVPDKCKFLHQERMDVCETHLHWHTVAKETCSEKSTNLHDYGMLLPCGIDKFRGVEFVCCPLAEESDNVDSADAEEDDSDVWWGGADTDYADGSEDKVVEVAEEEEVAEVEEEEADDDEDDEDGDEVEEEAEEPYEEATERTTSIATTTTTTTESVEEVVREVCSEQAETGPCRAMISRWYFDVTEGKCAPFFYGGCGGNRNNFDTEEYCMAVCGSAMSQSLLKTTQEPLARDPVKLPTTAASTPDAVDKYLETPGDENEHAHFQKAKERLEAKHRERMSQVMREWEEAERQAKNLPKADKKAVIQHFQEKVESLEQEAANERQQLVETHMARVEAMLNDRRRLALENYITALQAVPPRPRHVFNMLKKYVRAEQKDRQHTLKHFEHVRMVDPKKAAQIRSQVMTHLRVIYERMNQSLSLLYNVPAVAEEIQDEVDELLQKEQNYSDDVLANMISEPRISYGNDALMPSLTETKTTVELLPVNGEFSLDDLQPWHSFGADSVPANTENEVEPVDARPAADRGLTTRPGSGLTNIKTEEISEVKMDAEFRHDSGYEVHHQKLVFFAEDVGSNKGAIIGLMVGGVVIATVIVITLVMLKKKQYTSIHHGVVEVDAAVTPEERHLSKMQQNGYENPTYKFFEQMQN

[4] = Selectivity index, ratio of IC50 for electric eel AChE to IC50 for equine serum BuChE
[5] = target: T1, Amine oxidase [flavin-containing] A (Homo sapiens, UniProt P21397); test: Inhibition of recombinant human MAO-A expressed in baculovirus infected BTI insect cells using kynuramine as substrate incubated for 30 mins by fluorescence based assay
T1 sequence (P21397 whole entry): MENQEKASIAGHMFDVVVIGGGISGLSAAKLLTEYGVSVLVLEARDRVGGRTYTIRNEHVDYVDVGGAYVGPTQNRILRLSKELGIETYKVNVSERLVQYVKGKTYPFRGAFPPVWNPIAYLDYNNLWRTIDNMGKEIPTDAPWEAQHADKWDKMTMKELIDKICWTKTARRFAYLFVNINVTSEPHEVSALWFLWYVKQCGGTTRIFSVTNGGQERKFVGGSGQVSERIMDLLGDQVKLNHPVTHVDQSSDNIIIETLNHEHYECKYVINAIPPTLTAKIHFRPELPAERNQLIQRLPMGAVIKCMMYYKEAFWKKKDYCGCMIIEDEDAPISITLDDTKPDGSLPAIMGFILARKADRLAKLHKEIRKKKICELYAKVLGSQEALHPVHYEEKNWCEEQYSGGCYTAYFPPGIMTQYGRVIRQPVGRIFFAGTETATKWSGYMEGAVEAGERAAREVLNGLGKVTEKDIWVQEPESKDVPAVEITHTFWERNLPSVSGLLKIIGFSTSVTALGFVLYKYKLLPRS

[6] = target: T2, Amine oxidase [flavin-containing] B (Homo sapiens, UniProt P27338); test: Inhibition of recombinant human MAO-B expressed in baculovirus infected BTI insect cells using kynuramine as substrate incubated for 30 mins by fluorescence based assay; format: cell-based
T2 sequence (P27338 whole entry): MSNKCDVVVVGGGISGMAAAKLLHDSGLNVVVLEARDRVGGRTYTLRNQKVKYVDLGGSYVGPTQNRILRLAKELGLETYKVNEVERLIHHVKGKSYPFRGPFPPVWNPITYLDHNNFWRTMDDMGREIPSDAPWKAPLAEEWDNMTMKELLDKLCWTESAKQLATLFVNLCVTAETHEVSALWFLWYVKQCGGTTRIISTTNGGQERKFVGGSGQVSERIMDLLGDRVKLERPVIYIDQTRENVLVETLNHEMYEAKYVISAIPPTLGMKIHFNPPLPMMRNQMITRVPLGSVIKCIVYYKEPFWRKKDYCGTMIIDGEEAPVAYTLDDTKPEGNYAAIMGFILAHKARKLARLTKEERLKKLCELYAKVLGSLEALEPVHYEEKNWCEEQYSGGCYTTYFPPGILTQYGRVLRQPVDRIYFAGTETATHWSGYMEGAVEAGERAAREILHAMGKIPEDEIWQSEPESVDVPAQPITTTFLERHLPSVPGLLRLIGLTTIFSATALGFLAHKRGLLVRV

Mus musculus [7] = test: (§1) Antialzheimer activity in po dosed scopolamine-induced memory impairment Kunming mouse model assessed as increase in latency time treated with compound 1 hr before training trial followed by 30 mins later administration with scopolamine and measured 24 hrs after training trial by step-down passive avoidance test; format: functional, organism-based
Mus musculus [8] = test: as §1, with “in” for “in po dosed”, “as” for “as increase in”, “time at 16.8 mg/kg po” for “time”, “test (reference value: 70.4 secs)” for “test”; format: functional
[9] = Metal chelating activity assessed as compound-Cu2+ complex formation by measuring shift in maximum absorption from 361 nm to 418 nm at 37.5 uM after 30 mins by UV-visible spectrometry method
[10] = target: Cholinesterase (Equus caballus) (UniProt P81908); test: Reversible inhibition of equine serum BuChE assessed as enzyme activity at 0.1xIC50 using butyrylthiocholine iodide as substrate measured at 240 mins after dilution by Ellman's method relative to control; parameters: scale not given: the % may be the effect or the level left
Cholinesterase (Equus caballus), sequence (P81908 whole entry): as the sequence (P81908 whole entry) above

[11] = Acute toxicity in Kunming mouse assessed as abnormal behaviour at 250 to 1000 mg/kg, po measured for first 4 hrs through 14 days; format: organism-based; conditions: in vivo
PC-12 [12] = test: Neuroprotective activity against H2O2-induced cell death in rat PC12 cells assessed as cell viability at 10 uM preincubated for 24 hrs followed by H2O2 stimulation for 2 hrs followed by replacement of fresh medium and measured after 24 hrs by MTT assay (reference value: 51.3%); format: functional; conditions: read-out: Activity
[13] = Metal chelating activity assessed as compound-Cu+ complex formation assessed as effect on maximum absorption shift at 37.5 uM after 30 mins by UV-visible spectrometry method
[14] = Metal chelating activity assessed as compound-Zn2+ complex formation assessed as effect on maximum absorption shift at 37.5 uM after 30 mins by UV-visible spectrometry method
[15] = Metal chelating activity assessed as compound-Al3+ complex formation by measuring shift in maximum absorption from 361 nm to 426 nm at 37.5 uM after 30 mins by UV-visible spectrometry method
[16] = Acute toxicity in Kunming mouse assessed as mortality at 250 to 1000 mg/kg, po measured for first 4 hrs through 14 days; format: organism-based; conditions: in vivo
[17] = target: Cholinesterase (Equus caballus) (UniProt P81908); test: Reversible inhibition of equine serum BuChE assessed as enzyme activity at 0.1xIC50 using butyrylthiocholine iodide as substrate measured after dilution by Ellman's method relative to control; parameters: scale not given: the % may be the effect or the level left
[18] = target: Cholinesterase (Equus caballus) (UniProt P81908); test: Reversible inhibition of equine serum BuChE assessed as enzyme activity at 1xIC50 using butyrylthiocholine iodide as substrate measured after dilution by Ellman's method relative to control; parameters: scale not given: the % may be the effect or the level left
[19] = Disaggregation of Cu2+ induced preformed fibrils of amyloid beta (1 to 42) (unknown origin) at 25 uM after 24 hrs by transmission electron microscopy relative to control
PC-12 [20] = test: Neuroprotective activity against H2O2-induced cell death in rat PC12 cells assessed as increase in cell viability preincubated for 24 hrs followed by H2O2 stimulation for 2 hrs followed by replacement of fresh medium and measured after 24 hrs by MTT assay; format: functional, cell-based
[21] = Inhibition of Cu2+ induced human amyloid beta (1 to 42) aggregation at 25 uM after 24 hrs by thioflavin-T fluorescence assay relative to control
[22] = Metal chelating activity assessed as compound-Fe3+ complex formation assessed as effect on maximum absorption shift at 37.5 uM after 30 mins by UV-visible spectrometry method
[23] = target: T1, Amine oxidase [flavin-containing] A; test: Inhibition of recombinant human MAO-A expressed in baculovirus infected BTI insect cells at 10 uM incubated for 30 mins using kynuramine as substrate by fluorescence based assay relative to control; conditions: 0.5 h
PC-12 [24] = test: Cytotoxicity against rat PC12 cells assessed as cell viability at 0.1 to 100 uM incubated for 24 hrs by MTT assay; format: cell-based; conditions: pc-12, 24 h
PC-12 [25] = test: Neuroprotective activity against H2O2-induced cell death in rat PC12 cells assessed as cell viability at 1 uM preincubated for 24 hrs followed by H2O2 stimulation for 2 hrs followed by replacement of fresh medium and measured after 24 hrs by MTT assay (reference value: 51.3%); format: functional; conditions: read-out: Activity
[26] = Metal chelating activity assessed as compound-Fe2+ complex formation assessed as effect on maximum absorption shift at 37.5 uM after 30 mins by UV-visible spectrometry method

O=C(/C=C/c1cccc(OCCCN2CCc3ccccc3C2)c1)c1ccccc1O
Ratio IC50 (Homo sapiens): 2.8
pIC50 (Cholinesterase): 4.95
Papp at 18 h, 100 ug/ml [1]: 10.2 ×10⁻⁶ cm/s
Activity [2]: 1.1 µMequiv/µM
pIC50 (Acetylcholinesterase): 4.75
inhibition [3]: 65.9%
Ratio IC50 [4]: 1.6
pIC50 [5]: 4.53
pIC50 [6]: 4.97

O=C(/C=C/c1ccc(F)cc1)c1ccc(OCCCN2CCc3ccccc3C2)cc1O
Ratio IC50 (Homo sapiens): 2.1
pIC50 (Cholinesterase): 4.87
Papp at 18 h, 100 ug/ml [1]: 12.6 ×10⁻⁶ cm/s
Activity [2]: 0.92 µMequiv/µM
pIC50 (Acetylcholinesterase): 4.65
inhibition [3]: 72.4%
Ratio IC50 [4]: 1.7
pIC50 [5]: 4.58
pIC50 [6]: 4.90

O=C(/C=C/c1cccc(OCCCCN2CCc3ccccc3C2)c1)c1ccccc1O
Activity (Mus musculus [7]): Dose-dependent effect
Time (Mus musculus [8]): 126.4 s
Activity [9]: Active
Activity [10]: 104%
Activity [11]: Non-Toxic
viability at 10 µM (PC-12 [12]): 82.6%
pIC50 (Cholinesterase): 5.59
Papp at 18 h, 100 ug/ml [1]: 11.3 ×10⁻⁶ cm/s
Activity [13]: inactive
Activity [2]: 1.2 µMequiv/µM
Activity [14]: inactive
Activity [15]: Active
Activity [16]: Non-Toxic
Activity [17]: 60.8%
pIC50 (Acetylcholinesterase): 4.79
Activity [18]: 52.6%
inhibition [19]: 73.5%
Activity (PC-12 [20]): Dose-dependent effect
inhibition [21]: 80.7%
Activity [22]: inactive
inhibition at 10 µM [23]: < 5%
inhibition [3]: 70.2%
Ratio IC50 [4]: 6.2
Activity (PC-12 [24]): Non-Toxic
pIC50 [6]: 5.28
viability at 1 µM (PC-12 [25]): 61.9%
Activity [26]: inactive

O=C(CCc1cccc(OCCCCN2CCc3ccccc3C2)c1)c1ccccc1O
pIC50 (Cholinesterase): 6.19
Papp at 18 h, 100 ug/ml [1]: 16.8 ×10⁻⁶ cm/s
Activity [2]: 1.4 µMequiv/µM
pIC50 (Acetylcholinesterase): 4.64
inhibition at 10 µM [23]: < 5%
Ratio IC50 [4]: 36
pIC50 [6]: 4.57

O=C(/C=C/c1cccc(OCCCCCN2CCc3ccccc3C2)c1)c1ccccc1O
pIC50 (Cholinesterase): 5.43
Papp at 18 h, 100 ug/ml [1]: 10 ×10⁻⁶ cm/s
Activity [2]: 1.2 µMequiv/µM
pIC50 (Acetylcholinesterase): 4.73
inhibition at 10 µM [23]: < 5%
inhibition [3]: 69.7%
Ratio IC50 [4]: 7.2
pIC50 [6]: 5.32

COc1cc2c(cc1OC)C(=O)C(CC1CCN(Cc3ccccc3)CC1)C2 (centres undefined)
Activity [10]: 127%
Activity [17]: 60.5%
Activity [18]: 50.9%

COc1ccccc1/C=C/C(=O)c1ccc(OCCCCN2CCc3ccccc3C2)cc1O
Ratio IC50 (Homo sapiens): 2.4
pIC50 (Cholinesterase): 5.28
Papp at 18 h, 100 ug/ml [1]: 13.1 ×10⁻⁶ cm/s
Activity [2]: 1.5 µMequiv/µM
pIC50 (Acetylcholinesterase): 5.08
inhibition [3]: 83.1%
Ratio IC50 [4]: 1.6
pIC50 [5]: 4.52
pIC50 [6]: 5.02

O=C(/C=C/c1cccc(OCCCCCCN2CCc3ccccc3C2)c1)c1ccccc1O
Ratio IC50 (Homo sapiens): 4.7
pIC50 (Cholinesterase): 5.39
Papp at 18 h, 100 ug/ml [1]: 11.8 ×10⁻⁶ cm/s
Activity [2]: 1.1 µMequiv/µM
pIC50 (Acetylcholinesterase): 4.57
inhibition [3]: 65.6%
Ratio IC50 [4]: 6.6
pIC50 [5]: 4.50
pIC50 [6]: 5.17

CN(C)c1ccc(/C=C/C(=O)c2ccc(OCCCCCCN3CCc4ccccc4C3)cc2O)cc1
pIC50 (Cholinesterase): 4.98
Papp at 18 h, 100 ug/ml [1]: 13.2 ×10⁻⁶ cm/s
Activity [2]: 1.6 µMequiv/µM
pIC50 (Acetylcholinesterase): 5.18
inhibition at 10 µM [23]: < 5%
inhibition [3]: 97.5%
Ratio IC50 [4]: 0.6
pIC50 [6]: 5.15

O=C(/C=C/c1cccc(OCCCCN2CCC(Cc3ccccc3)CC2)c1)c1ccccc1O
pIC50 (Cholinesterase): 5.31
Papp at 18 h, 100 ug/ml [1]: 12.3 ×10⁻⁶ cm/s
Activity [2]: 1.2 µMequiv/µM
pIC50 (Acetylcholinesterase): 4.82
inhibition at 10 µM [23]: < 5%
inhibition [3]: 71.4%
Ratio IC50 [4]: 3.1
pIC50 [6]: 5.19

COc1cc(/C=C/C(=O)CC(=O)/C=C/c2ccc(O)c(OC)c2)ccc1O
inhibition [19]: 56.5%
inhibition [21]: 76.5%
